The values that follow come from patent US20070269830A1, “Process for the Identification of New Medical Targets” (priority 2003, published 2007).

Assay [1] has as its target T1, E. coli expressed His-tagged human carbonyl reductase (CBR1) (Homo sapiens, UniProt P16152).
T1 construct: His; made in house; host or cells: E. coli
T1 sequence (P16152 1-277): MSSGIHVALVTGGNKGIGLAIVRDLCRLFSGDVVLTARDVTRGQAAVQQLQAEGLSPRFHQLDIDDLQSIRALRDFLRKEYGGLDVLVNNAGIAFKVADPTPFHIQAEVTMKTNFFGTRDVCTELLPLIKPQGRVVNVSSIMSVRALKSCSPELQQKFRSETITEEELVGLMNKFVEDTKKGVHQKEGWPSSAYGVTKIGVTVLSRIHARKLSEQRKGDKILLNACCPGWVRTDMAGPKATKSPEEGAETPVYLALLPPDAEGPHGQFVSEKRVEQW
Briefly: carbonyl reductase activity assay (NADPH oxidation with menadione), recombinant enzyme. It counts as biochemical. Particulars: rate without benserazide 24.0. As to the method:
(§1) The carbonyl reductase activity was evaluated spectrophotometrically according to the methods of Iwata et al. 1990. Eur. J. Biochem 193, p. 75-81.: Inazu N, Ruepp B., Wirth H., Wermuth B. 1992. BBA, 1116, p. 50-56 and Imamura et al. 1993. Arch. Biochem. Biophys. 300, p. 570-576. The oxidation rate of NADPH was recorded in the presence of the specific substrate menadione at 340 nm at room temperature on a Jenway 6505 UV/VIS Spectrophotometer.
(§2) The standard assay mixture consisted of 100 mM sodium phosphate buffer pH 7.0, 0.12 mM NADPH, 0.25 mM menadione. The reaction was started by adding 5-20 μg of E. coli expressed His-tagged human carbonyl reductase (CBR1) or alternatively by adding 10 μl of mouse live lysate extract (total protein concentration of 15 mg/ml). The total volume of the reaction mixture was 1 ml. The change of the absorbance was monitored at 340 nm.
(§3) The inhibition of carbonyl reductase was determined using the assay described in example 1. In addition to menadione as a substrate, the assay mixture was supplemented with 0, 0.5, 1, 2, 3, 6, or 7.5 mM benserazide. The inhibition experiment performed with mouse liver lysate as well as with recombinant CBR1 in protein supplemented probes.

For assay [2], the target named is T2, Carbonyl Reductase (CBR1) (Mus musculus, UniProt P48758).
T2 construct: from tissue; host or cells: mouse liver
T2 sequence (P48758 1-277): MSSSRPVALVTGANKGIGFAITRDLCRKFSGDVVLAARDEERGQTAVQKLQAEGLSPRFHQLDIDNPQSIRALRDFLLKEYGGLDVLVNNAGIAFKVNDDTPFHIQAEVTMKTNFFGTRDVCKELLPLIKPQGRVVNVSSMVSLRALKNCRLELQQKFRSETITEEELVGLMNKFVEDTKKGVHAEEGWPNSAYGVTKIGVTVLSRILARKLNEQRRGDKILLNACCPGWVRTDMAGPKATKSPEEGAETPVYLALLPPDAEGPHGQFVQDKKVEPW
Kind of assay: drug pulldown assay with immobilized benserazide, mouse liver cell lysate. It counts as binding. Particulars: benserazide on NHS-activated beads, mass spectrometry identification. As to the method:
The compound benserazide was immobilized on NHS-activated beads (Affi Gel 10, BioRad) via its NH2-group. 300 μl of the beads (both with the immobilized. benserazide and control beads) were washed in 10 ml washing buffer A (50 mM Tris, pH 7.5; 0.1 M NaCl, 0.15% lgepal, 1.5 mM MgCl2, 0.1 mM DTT) for 5-10 min at 4° C. and centrifugation for 5 min at 1000 rpm in a Heraeus Varifuge 3 OR).
Mouse liver cell lysate (60-100 mg total protein) and 125 μl 50× protease inhibitor tablets (Roche, Complete, EDTA free) where added to the beads and the suspension was incubated for 1 h at 4° C. (while rotating). The suspension was washed 1-3 × with 10 ml washing buffer B (50 mM Tris, pH 7.5; 0.1 M NaCl, 0.15% lgepal, 1.5 mM MgCl2, 0.1 mM DTT, 1× Protease inhibitor tablet (Complete, EDTA free, Roche)) by rotating the suspension for 5-10 min at 4° C. and centrifugation at 10,000 rpm at 4° C. The beads were transferred to a 1 ml MoBiTec column and connected to a 10 ml syringe. 10 ml washing buffer B were added.
Elution was performed by adding a 5-10 fold excess of the drug relative to the beads capacity. The drug was dissolved in 500 μl washing buffer B and incubated with beads on a rotating platform for 1 h at 4° C. and subsequently eluted in an eppendorf tube. 300 μl of washing buffer B were added to the beads and eluted immediately in the same eppendorf tube. […]

In assay [3] the test system is carbonyl reductase activity in mouse liver lysate. Kind of assay: carbonyl reductase activity assay (NADPH oxidation with menadione), mouse liver lysate. It counts as biochemical. The conditions noted are these: rate without benserazide 16.3. As to the method:
as §1, §2, §3

For the molecule `NC(CO)C(=O)NNCc1ccc(O)c(O)c1O` (centres unmarked) [benserazide], the “initial rate, carbonyl reductase” value amounted to 13.7 nmol/min in assay [1] (2 mM benserazide, 0.25 mM menadione, 0.12 mM NADPH); 3.5 nmol/min in assay [1] (6 mM benserazide); 0.3 nmol/min in assay [1] (7.5 mM benserazide). In addition, in assay [2], the “binding of carbonyl reductase (CBR1) to immobilized drug” value is on record as “Identified as a Binding Partner”. In addition, the “initial rate, mouse liver lysate” value in assay [3] (0.5 mM benserazide) worked out at 12.1 nmol/min; in assay [3] (1 mM benserazide), 8.6 nmol/min; in assay [3] (2 mM benserazide), 1.2 nmol/min; in assay [3] (3 mM benserazide), 1.3 nmol/min.
